From patent publication US20220002280A1, “COMPOUNDS AND METHODS OF USE” (Ferro Therapeutics, Inc., priority 2019, published 2022) come the findings set out here.

As a reminder, the IC50 is the concentration that gives 50% inhibition. Low values mean inhibition by little substance, high ones a need for much substance.

Structures can show the parent of a compound that is named as a salt. Bounds are passed on as bounds.

What all share (assay type): cell-based, human
For one experiment, the system named is 786-O. The experiment can be described thus: Cell proliferation (Alamar Blue) assay, 786-O. The conditions noted are these: 786-O cells, 24 h treatment. As for the experimental part:
(§1) A cell viability assay was performed to assess the potency of the compounds in human cancer cell lines 786-0 (renal cell carcinoma), SJSA-1 (osteosarcoma), and/or A431 (epidermoid carcinoma). Additional cell lines, such as pancreatic cancer cell lines (e.g., Panc 02.13, BxPC-3, Panc 12, Panc 02.03, Panc 6.03, PSN-1, HPAC, and Capan-1), prostate cancer cell lines (e.g., PC-3, DU145, 22Rv1, NCI-H660, BPH1, LNCaP, BM-1604, and MDA PCa 2b), etc., can be tested in a similar method.
(§2) Cells (SJSA-1, 786-0 and/or A431) were seeded (5000 cells/100 μL/well) in 96-well tissue culture plate and incubated at 37° C./5% CO2 for 16-24 hours. The cells were then treated with compounds (25 μL of 5×). The compound concentrations were 10-0.0005 μM prepared in 3-fold serial dilutions with final DMSO concentration of 1%. The plates were then incubated for 24h at 37° C./5% CO2 in a moist environment. Then Alamar Blue™ reagent (final concentration 1×-12.5 μL) was added to each well and incubated for 1.5 hours at 37° C./5% CO2. The plates were read on fluorescence reader at 540 nm excitation and 590 nm emission wavelengths. The IC50 values were subsequently determined using a sigmoidal dose-response curve (variable slope) in GraphPad Prism® 5 software.
(Alamar Blue is a resazurin reagent that responds to reducing activity.)

The test system of the next experiment is SJSA-1. As to the kind of experiment: Cell proliferation (Alamar Blue) assay, SJSA-1. The conditions noted are these: SJSA-1 cells, 24 h treatment. As for the experimental part: as §1, §2
Another experiment relates to A431. The experiment can be described thus: Cell proliferation (Alamar Blue) assay, A431. The settings on record: 24 h treatment. How it is done:
as §1, §2

The mark [1] stands for this setting: Homo sapiens, A-431, A431 cells.

For `CCCC[C@H]1Cc2cc(OC)ccc2[C@H](c2ccc(NC34CC5CC(CC(C5)C3)C4)cc2)N1C(=O)CCl` [Compound 27, 1-((1S,3S)-1-(4-(((3R,5R,7R)-adamantan-1-yl)amino)phenyl)-3-butyl-6-methoxy-3,4-dihydroisoquinolin-2(1H)-yl)-2-chloroethan-1-one], the IC50 with 786-O (Homo sapiens, 786-0, 24 h) was determined as 0.004 µM; in the experiment on SJSA-1 (Homo sapiens) it was 0.006 µM; with A431 (setting [1]), 8.4 µM.

Consider `C#CC(=O)N1[C@@H](CCCC)Cc2cc(OC)ccc2[C@@H]1c1ccc(NC23CC4CC(CC(C4)C2)C3)cc1` [Compound 101, 1-((1S,3S)-1-(4-(((3R,5R,7R)-adamantan-1-yl)amino)phenyl)-3-butyl-6-methoxy-3,4-dihydroisoquinolin-2(1H)-yl)prop-2-yn-1-one hydrochloride], for which the IC50 in the experiment with 786-O (hydrochloride) amounted to 0.008 µM; with SJSA-1 (hydrochloride), 0.0115 µM; in the experiment on A431 (A431 cells, hydrochloride) it was 6.87 µM.

In the experiment with 786-O (Homo sapiens, 786-0, 24 h), `COc1ccc2c(c1)C[C@H](C)N(C(=O)CCl)[C@H]2c1ccc(N2CCOCC2)cc1` [Compound 33] yielded an IC50 of 0.259 µM.

Turning to `C#CC(=O)N1[C@@H](CCCC)Cc2cc(OC)ccc2[C@@H]1c1ccc(C(=O)NC23CC4CC(CC(C4)C2)C3)cc1` [Compound 38, N-((3R,5R,7R)-adamantan-1-yl)-4-((1S,3S)-3-butyl-6-methoxy-2-propioloyl-1,2,3,4-tetrahydroisoquinolin-1-yl)benzamide], the IC50 was determined as 0.005 µM with 786-O (Homo sapiens, 786-0, 24 h); 0.01 µM in the experiment with SJSA-1 (Homo sapiens); 10 µM with A431 (setting [1]).

With `COC(=O)c1ccc([C@H]2c3ccccc3C[C@H](C)N2C(=O)CCl)cc1` [Compound 35], in the experiment on SJSA-1 (Homo sapiens), the IC50 turned out to be 2.56 µM.

`COC(=O)c1ccc([C@H]2c3ccc(OC)cc3C[C@H](C)N2C(=O)CCl)cc1` [Compound 7, methyl 4-((1S,3S)-2-(2-chloroacetyl)-6-methoxy-3-methyl-1,2,3,4-tetrahydroisoquinolin-1-yl)benzoate]: the IC50 in the experiment on 786-O (Homo sapiens, 786-0, 24 h) is 0.137 µM; in the experiment with SJSA-1 (Homo sapiens), 0.22 µM; in the experiment with A431 (setting [1]), 7.8 µM.

Turning to `C#CC(=O)N1C(c2ccnc(C)c2)c2ccc(OC)cc2C[C@@H]1CCCC` (stereo in doubt) [Compound 48, 1-((1S,3S)-3-butyl-6-methoxy-1-(2-methylpyridin-4-yl)-3,4-dihydroisoquinolin-2(1H)-yl)prop-2-yn-1-one], the IC50 in the experiment on 786-O (Homo sapiens, 786-0, 24 h) amounted to 0.053 µM; in the experiment on SJSA-1 (Homo sapiens) it was 0.05 µM; in the experiment on A431 (setting [1]) it was 5 µM.

On to `C#CC(=O)N1[C@@H](CCCC)Cc2cc(OC)ccc2[C@@H]1C12CC(NC(=O)c3ccncc3)(C1)C2` [Compound 96, N-(3-((1S,3S)-3-butyl-6-methoxy-2-propioloyl-1,2,3,4-tetrahydroisoquinolin-1-yl)bicyclo[1.1.1]pentan-1-yl)isonicotinamide], for which the IC50 was 0.163 µM in the experiment with 786-O (Homo sapiens, 786-0, 24 h); 0.368 µM with SJSA-1 (Homo sapiens); more than 10 µM in the experiment with A431 (setting [1]).

In the case of `COC(=O)c1ccc([C@@H]2c3ccccc3C[C@H](C(=O)OC)N2C(=O)CCl)cc1` [Compound 2, methyl (1R,3R)-2-(2-chloroacetyl)-1-(4-(methoxycarbonyl)phenyl)-1,2,3,4-tetrahydroisoquinoline-3-carboxylate], the IC50 came out at 0.742 µM with 786-O (Homo sapiens, 786-0, 24 h); 0.855 µM in the experiment with SJSA-1 (Homo sapiens); 8.7 µM in the experiment on A431 (setting [1]).

`COC(=O)c1ccc([C@H]2c3ccccc3C[C@H](C(=O)OC)N2C(=O)CCl)cc1` [Compound 3, methyl (1S,3R)-2-(2-chloroacetyl)-1-(4-(methoxycarbonyl)phenyl)-1,2,3,4-tetrahydroisoquinoline-3-carboxylate]: the IC50 in the experiment with 786-O (Homo sapiens, 786-0, 24 h) was 0.512 µM; in the experiment with SJSA-1 (Homo sapiens), 0.736 µM; in the experiment with A431 (setting [1]), more than 10 µM.

Consider `C#CC(=O)N1[C@@H](CCCC)Cc2cc(OC)ccc2[C@@H]1C12CC(N)(C1)C2` [Compound 76, 1-((1S,3S)-1-(3-aminobicyclo[1.1.1]pentan-1-yl)-3-butyl-6-methoxy-3,4-dihydroisoquinolin-2(1H)-yl)prop-2-yn-1-one], for which the IC50 with 786-O (Homo sapiens, 786-0, 24 h) is 0.187 µM; with SJSA-1 (Homo sapiens), 0.623 µM; in the experiment on A431 (setting [1]), more than 10 µM.

Regarding `C#CC(=O)N1[C@@H](CCCC)Cc2cc(OC)ccc2[C@@H]1c1ccc(CNC23CC4CC(CC(C4)C2)C3)cc1` [Compound 99], the IC50 in the experiment with 786-O (Homo sapiens, 786-0, 24 h) was determined as 0.002 µM; in the experiment on SJSA-1 (Homo sapiens), 0.002 µM; in the experiment on A431 (setting [1]), 2.77 µM.

For the molecule `C#CC(=O)N1[C@@H](CCCC)Cc2cc(OC)ccc2[C@@H]1c1ccc(C(=O)NC2CCC2)nc1` [Compound 15, 5-((1R,3S)-3-butyl-6-methoxy-2-propioloyl-1,2,3,4-tetrahydroisoquinolin-1-yl)-N-cyclobutylpicolinamide], the IC50 was determined as 0.01 µM in the experiment with 786-O (Homo sapiens, 786-0, 24 h); 0.018 µM in the experiment with SJSA-1 (Homo sapiens); 3.5 µM in the experiment on A431 (setting [1]).

With `COC(=O)c1ccc([C@H]2c3cc(OC)c(OC)cc3C[C@H](C)N2C(=O)CCl)cc1` [Compound 34], the midpoint of inhibition with 786-O (Homo sapiens, 786-0, 24 h), the IC50, lay at 0.592 µM.

In the case of `C#CC(=O)N1[C@@H](CCCC)Cc2cc(OC)ccc2[C@@H]1C1CCN(C)CC1` [Compound 54, 1-((3S)-3-butyl-6-methoxy-1-(1-methylpiperidin-4-yl)-3,4-dihydroisoquinolin-2(1H)-yl)prop-2-yn-1-one], the IC50 in the experiment on 786-O (Homo sapiens, 786-0, 24 h) turned out to be 0.743 µM; in the experiment with SJSA-1 (Homo sapiens), 0.659 µM; in the experiment with A431 (setting [1]) it was 5.8 µM.

With `C#CC(=O)N1[C@@H](CCCC)Cc2cc(OC)ccc2[C@@H]1c1ccccn1` [Compound 49, 1-((1R,3S)-3-butyl-6-methoxy-1-(pyridin-2-yl)-3,4-dihydroisoquinolin-2(1H)-yl)prop-2-yn-1-one], the IC50 in the experiment on 786-O (Homo sapiens, 786-0, 24 h) came to 0.023 µM; in the experiment with SJSA-1 (Homo sapiens), 0.04 µM; in the experiment on A431 (setting [1]), 6.6 µM.

As for `C#CC(=O)N1[C@@H](CCCC)Cc2cc(OC)ccc2[C@@H]1c1ccc2ncccc2c1` [Compound 97, 1-((1S,3S)-3-butyl-6-methoxy-1-(quinolin-6-yl)-3,4-dihydroisoquinolin-2(1H)-yl)prop-2-yn-1-one], the IC50 in the experiment on 786-O (Homo sapiens, 786-0, 24 h) is 0.026 µM; with SJSA-1 (Homo sapiens), 0.068 µM; with A431 (setting [1]) it was more than 10 µM.

In the case of `C[C@H]1Cc2ccccc2C(c2ccc(N3CCOCC3)cc2)N1C(=O)CCl` (stereo partly drawn) [Compound 1, 2-chloro-1-((3S)-3-methyl-1-(4-morpholinophenyl)-3,4-dihydroisoquinolin-2(1H)-yl)ethan-1-one], the IC50 in the experiment with 786-O (Homo sapiens, 786-0, 24 h) is 2 µM; with SJSA-1 (Homo sapiens), 2.8 µM.

Regarding `C#CC(=O)N1[C@@H](CCCC)Cc2cc(OC)ccc2[C@@H]1c1ccc(NC(=O)OCCCCC)cc1` [Compound 98, pentyl N-{4-[(1S,3S)-3-butyl-6-methoxy-2-(prop-2-ynoyl)-1,2,3,4-tetrahydroisoquinolin-1-yl]phenyl}carbamate], the IC50 in the experiment on 786-O (Homo sapiens, 786-0, 24 h) amounted to 0.024 µM; in the experiment on SJSA-1 (Homo sapiens) it was 0.053 µM; in the experiment with A431 (setting [1]), 8.92 µM.

Turning to `C#CC(=O)N1[C@@H](CCCC)Cc2cc(OC)ccc2[C@@H]1c1ccc(S(=O)(=O)NC2CCC2)cc1` [Compound 18, 4-((1S,3S)-3-butyl-6-methoxy-2-propioloyl-1,2,3,4-tetrahydroisoquinolin-1-yl)-N-cyclobutylbenzenesulfonamide], the IC50 in the experiment on 786-O (Homo sapiens, 786-0, 24 h) amounted to 0.004 µM; in the experiment with SJSA-1 (Homo sapiens) it was 0.008 µM; in the experiment on A431 (setting [1]), 8.9 µM.

In the case of `C#CC(=O)N1[C@@H](CCCC)Cc2cc(OC)ccc2[C@@H]1c1ccc(NC(=O)C2CCC2)cc1` [Compound 102, N-(4-((1S,3S)-3-butyl-6-methoxy-2-propioloyl-1,2,3,4-tetrahydroisoquinolin-1-yl)phenyl)cyclobutanecarboxamide], the IC50 in the experiment on 786-O (Homo sapiens, 786-0, 24 h) worked out at 0.021 µM; in the experiment on SJSA-1 (Homo sapiens) it was 0.021 µM; in the experiment on A431 (setting [1]), 6.13 µM.

`C#CC(=O)N1[C@@H](CCCC)Cc2cc(OC)ccc2[C@@H]1c1ccc(Nc2cccnc2)cc1` [Compound 94, 1-[(1S,3S)-3-butyl-6-methoxy-1-{4-[(pyridin-3-yl)amino]phenyl}-1,2,3,4-tetrahydroisoquinolin-2-yl]prop-2-yn-1-one]: the half-inhibitory concentration (IC50) is 0.108 µM in the experiment with 786-O (Homo sapiens, 786-0, 24 h); 0.047 µM with SJSA-1 (Homo sapiens); more than 10 µM with A431 (setting [1]).

Turning to `C#CC(=O)N1[C@@H](CCCC)Cc2cc(OC)ccc2[C@@H]1c1ccc(NC(=O)c2ccnc(C)c2)cc1` [Compound 95, N-{4-[(1S,3S)-3-butyl-6-methoxy-2-(prop-2-ynoyl)-1,2,3,4-tetrahydroisoquinolin-1-yl]phenyl}-2-methylpyridine-4-carboxamide], the IC50 is 0.037 µM in the experiment with 786-O (Homo sapiens, 786-0, 24 h); 0.2 µM with SJSA-1 (Homo sapiens); more than 10 µM in the experiment on A431 (setting [1]).

For `C#CC(=O)N1[C@@H](CCCC)Cc2cc(OC)ccc2[C@@H]1C1CCCCC1` [Compound 39, 1-((1S,3S)-3-butyl-1-cyclohexyl-6-methoxy-3,4-dihydroisoquinolin-2(1H)-yl)prop-2-yn-1-one], the IC50 in the experiment on 786-O (Homo sapiens, 786-0, 24 h) was 0.158 µM; in the experiment on SJSA-1 (Homo sapiens), 0.17 µM; in the experiment on A431 (setting [1]) it was more than 10 µM.

Turning to `COC(=O)c1ccc([C@@H]2c3ccc(OC)cc3C[C@H](C)N2C(=O)CCl)cc1` [Compound 6, methyl 4-((1R,3S)-2-(2-chloroacetyl)-6-methoxy-3-methyl-1,2,3,4-tetrahydroisoquinolin-1-yl)benzoate], the IC50 is 3 µM in the experiment on 786-O (Homo sapiens, 786-0, 24 h); 3.2 µM in the experiment on SJSA-1 (Homo sapiens); more than 10 µM in the experiment on A431 (setting [1]).
